Data published in ChEMBL document CHEMBL2074406, “Single amino acid substitutions in the transmembrane domains of breast cancer resistance protein (BCRP) alter cross resistance patterns in transfectants” (Int J Cancer, 2003).

These compounds were tested against T1, Broad substrate specificity ATP-binding cassette transporter ABCG2 (Homo sapiens, UniProt Q9UNQ0) (assay: TP_TRANSPORTER: drug resistance in BCRP-expressing PA317 cells). Conditions: mouse.
T1 sequence (Q9UNQ0 whole entry): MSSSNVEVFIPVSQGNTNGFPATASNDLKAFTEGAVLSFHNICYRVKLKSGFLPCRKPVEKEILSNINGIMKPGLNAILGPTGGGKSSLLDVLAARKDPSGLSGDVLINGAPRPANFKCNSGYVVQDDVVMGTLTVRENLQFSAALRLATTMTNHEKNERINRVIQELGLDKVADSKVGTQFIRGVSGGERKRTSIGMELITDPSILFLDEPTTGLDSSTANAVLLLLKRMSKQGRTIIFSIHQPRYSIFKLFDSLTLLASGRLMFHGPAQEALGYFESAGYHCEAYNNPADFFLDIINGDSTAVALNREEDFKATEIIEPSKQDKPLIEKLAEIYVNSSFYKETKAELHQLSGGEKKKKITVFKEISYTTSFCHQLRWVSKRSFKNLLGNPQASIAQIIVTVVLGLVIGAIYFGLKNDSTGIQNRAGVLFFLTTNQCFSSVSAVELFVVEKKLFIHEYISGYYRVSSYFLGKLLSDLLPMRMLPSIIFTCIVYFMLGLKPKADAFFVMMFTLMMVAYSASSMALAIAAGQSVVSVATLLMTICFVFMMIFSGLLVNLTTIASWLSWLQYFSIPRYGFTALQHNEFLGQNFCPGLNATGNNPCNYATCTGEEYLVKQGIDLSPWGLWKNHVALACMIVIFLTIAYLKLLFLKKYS
Assay type: functional, cell-based

Compound	Activity
CCc1c2c(nc3ccc(O)cc13)-c1cc3c(c(=O)n1C2)COC(=O)[C@]3(O)CC [7-ETHYL-10-HYDROXYCAMPTOTHECIN]	substrate []
C[C@]12CC[C@@H]3c4ccc(O)cc4CC[C@H]3[C@@H]1CCC2=O [ESTRONE]	inhibitor []
COc1ccc2c3c([nH]c2c1)[C@H](C=C(C)C)N1C(=O)[C@@H]2CCCN2C(=O)[C@@H]1C3 [FUMITREMORGIN]	inhibitor []
O=C1c2c(O)ccc(O)c2C(=O)c2c(NCCNCCO)ccc(NCCNCCO)c21 [MITOXANTRONE]	substrate []
